Results as given in patent US5961483A, “Iontophoretic delivery of cell adhesion inhibitors” (priority 1997, dated 1999).
≈ marks a conversion by molar mass, not a printed value. Where “and” joins values, the source holds several entries; their conditions need not be identical. Identical values can stand only once. Counter-ions that a name gives are not always drawn.

How the values were obtained:
[1] = In vitro excised skin iontophoretic delivery (flow-through cells); assay type: in vitro ADME, porcine; settings: for delivery rate (FIG. 7): 50 mg/mL chloride salt
Protocol: Patch Designs: The 2 compartment patch design includes an absorbent drug reservoir with 2 cm^2 skin-contacting area and volume of 0.30 mL. The drug reservoir is separated from the electrode compartment with a 100 MWCO ultrafiltration membrane. The electrode compartment included a silver anode and cation exchange media in a hydrogel. A monolithic patch design was also used, consisting of a sandwich composed of a silver anode in the middle of 2 layers of absorbent material. The patches are assembled and loaded with the dosing solution just before applying to the skin.
Experimental Protocol: The iontophoretic delivery of a GPIIb/IIIa antagonist was carried out in a flow-through in vitro system. […] The patch was loaded a 10 mg/mL solution of the IIb/IIIa antagonist in 154 mM saline.
A silver chloride mesh return cathode was located upstream of the polycarbonate flow-through cells. Freshly dermatomed (1 mm) porcine skin was mounted in the cells on a porous support. The patches were dosed with aqueous solutions of the drug and then placed on top of the excised skin. The patches were secured by a spring-loaded mechanism that maintained even pressure over the patch. The cells were "perfused" by means of a peristaltic pump which pulls receiver solution through them. Effluents from the cells were collected with a fraction collector. Flow rates were typically 0.25 mL/min. The receiver solution was an isotonic pH 7.4 buffered saline solution containing 10 mM HEPES, 100 mM NaCl, PEG 400, and a surfactant, Pluronic P-103. lontophoresis current (50 μA) was provided by WPI power cells, and the applied currents and cell voltages were recorded with a Fluke databucket.
Results: The effluent receiver solution was measured in a series of six runs, to determine whether the ester was hydrolyzed during the period of the iontophoresis. Results were obtained by means of liquid scintillation counting (radioactivity), and HPLC-UV. The HPLC results are estimates based on calibration for the ester form only.
Patches: A dual compartment 2 cm^2 patch design, loaded with 100 mg/mL of the GPIIb/IIIa antagonist of Example 1, with a size exclusion or anion exchange membrane separator.
Experimental Protocol: See Example 1, with current applied at 400 μA.
Patches: A dual compartment 2 cm^2 patch design, loaded with 50 mg/mL chloride salt of the IIb/IIIa antagonist.
Experimental Protocol: See Example 1, current applied at 100 μA and 200 μA.
Patches: A dual compartment 2 cm^2 patch design, loaded with either: (1) a 1 mM NaCl, 150 mg/mL formulation of the IIb/IIIa antagonist of Example 1, or (2) a 75 mM NaCl, 100 mg/mL formulation of the drug.
Experimental Protocol: See Example 1, current applied at 100 μA for the 1 mM NaCl sample, and at 400 μA for the 75 mM NaCl sample.

[2] = Assay of extracts of the patch following completion of iontophoresis; assay type: in vitro ADME
[3] = In vivo swine experiments (iontophoretic delivery, plasma levels; comparison with constant IV infusion); set-up: species or system Yorkshire swine
Protocol: Patch Design: Same as in Example 1.
Experimental Protocol: In each experiment, the patches were loaded with a 20 mg/mL solution of the same IIb/IIIa antagonist used in Example 1 in 154 mM saline, immediately before application to the skin of the animals. Unanesthetized Yorkshire swine with weights of about 20 to 35 kg were used. The skin sites receiving the patches were wiped clean with moist gauze pads. Patches were overwrapped with an adhesive, elastic wrap to hold the patches in place. Separate constant current (100 μA) power supplies were provided for each iontophoresis patch system. Current and voltage readings were made and recorded by on-board dataloggers (Fluke databuckets).
Blood samples were withdrawn from the vena cava through an IV catheter into VACUTAINER™ blood collection tubes containing EDTA. After gentle mixing, the tubes were centrifuged to separate the plasma, which was transferred to clean polypropylene tubes and frozen on dry ice. Frozen samples were stored at -80° C. until assayed.
Results: FIGS. 4 and 5 provide a comparative illustration of the in vivo delivery of the GPIIb/IIIa antagonist (mentioned in Example 1) to pigs using constant IV infusion (FIG. 4) and constant iontophoresis (FIG. 5). IV infusion employed the acid form of the drug at an infusion rate of 10 μg/h.

[4] = Physicochemical properties; settings: pH 4

constancy of flux (FIG. 3) [1] | delivery rate profile (FIG. 8) ([1]; 1 mM NaCl, 150 mg/mL at 100 μA and 75 mM NaCl, 100 mg/mL at 400 μA, 24 hour iontophoresis) | dependence of in vitro delivery on current (FIG. 3) ([1]; 10 mg/mL drug, 9 mg/mL NaCl) | variability in delivery from skin to skin (FIG. 2) ([1]; 10 mg/mL, 154 mM NaCl, 50 μA) | delivery, anion exchange compared with size exclusion membrane patch (FIG. 6) ([1]; dual compartment 2 cm^2 patch, 100 mg/mL, 400 μA) | metabolism of the positively charged ester to the uncharged zwitterion ([1]; in the skin or receptor fluid) | acid hydrolysis product in extracts of the patch [2] | variability in plasma levels with iontophoresis ([3]; 20 mg/mL in 154 mM saline patch) | blood levels, iontophoresis compared with constant IV infusion (FIGS. 4 and 5) ([3]; 20 mg/mL in 154 mM saline patch vs acid form IV at 10 μg/h, plasma acid drug form) | solubility [4] [mg/mL] | delivery rate (FIG. 7) ([1]; 100 μA, nearly flat delivery) [µg/h] | delivery rate (FIG. 7) ([1]; 200 μA, nearly constant delivery) [µg/h] | SMILES | delivery rate profile (FIG. 6) ([1]; dual compartment patches, 100 mg/mL, 400 μA) | Total (Liquid Scintillation Assay) ([1]; effluent receiver solution, 10 mg/mL in 154 mM saline, 50 μA, six runs (sample 1-6))
very constant over the 24 hour period | much more uniform delivery rates | proportional to increase in current | unexpectedly low | somewhat greater delivery | metabolized, to some extent | no detectable acid hydrolysis product | extremely low | similar | 80 (≈ 179 mM) | – | – | CCCCOC(=O)N[C@@H](CNC(=O)C[C@H]1CC(c2ccc(C(=N)N)cc2)=NO1)C(=O)OC [GPIIb/IIIa antagonist, methyl-N^3-[2-{3-(4-formamidinophenyl)-isoxazolin-5(R)-yl}-acetyl]-N^2-(n-butyloxycarbonyl)-2,3-(S)-diaminopropanoate] | the flux starts high, and falls as electrolyte cations accumulate with time | 4.76 µg/mL and 4.15 µg/mL and 4.05 µg/mL and 4.87 µg/mL and 5.56 µg/mL and 5.19 µg/mL
– | – | – | – | – | – | – | – | – | – | 10 to 20 | 20 to 35 | CCCCOC(=O)N[C@@H](CNC(=O)C[C@H]1CC(c2ccc(C(=N)N)cc2)=NO1)C(=O)OC [chloride salt of the IIb/IIIa antagonist] | – | –
